Results reported in patent publication US20240271096A1, “EFFICIENT DIFFERENTIATION OF SECOND HEART FIELD CARDIAC PROGENITOR CELLS AND RIGHT VENTRICLE CARDIOMYOCYTES FROM HUMAN PLURIPOTENT STEM CELLS” (Wisconsin Alumni Research Foundation, priority 2023, published 2024).

Legend:
Type in all cases: cell-based, human
[1] = test system: reporterless hiPSC line; test: Immunostaining of marker proteins in hiPSC-derived cardiac progenitor cells and cardiomyocytes
Experimental: For LV-cardiomyocyte differentiation, cardiac differentiation was performed according to the protocol published by (Lian et al., 2012, Proc Natl Acad Sci USA 109:[…]-57). Cells were dissociated with StemPro Accutase Cell Dissociation Reagent at 37° C. for 5 minutes. HESCs were seeded on Matrigel-coated 24-well plates (Corning) in StemFlex Medium supplemented with 10 μmol/[…] were seeded on iMatrix-511-coated 12-well plates (Corning) in StemFit A[…] supplemented with 10 μmol/[…] at seeding densities of 1×10^5 cells/cm^2 for hESCs and 1.25-2.5×10^4 cells/cm^2 for hiPSCs. Cells were cultured for 4 days until the start of differentiation (day 0). On day 0, the medium was changed to RPMI 1640 Medium (Thermo Fisher Scientific) supplemented with B-27 Supplement minus insulin (Thermo Fisher Scientific) (RPMI/B27-insulin) or B-27 Supplement with insulin (Thermo Fisher Scientific), and 12 μmol/L CHIR 99021 (SelleckChem, Houston, TX, United States), and the cells incubated in this medium for 24 h (day 1). On day 1, the medium was changed to RPMI/B27-insulin. […] On day 3, the medium was changed to RPMI/B27-insulin supplemented with 5 μmol/L IWP2 (SelleckChem) and on day 5, the medium was changed to 1 ml RPMI/B27-insulin. From day 7, the cells were cultured with RPMI/B27-insulin, and the cells were fed every other day. On day 12, the cells were washed with PBS (Thermo Fisher Scientific) and cultured with DMEM or RPMI, no glucose supplemented with 8 mmol/L L-(+)-Lactic acid (Merck) (Tohyama et al., 2013 Cell Stem Cell, 12:127-37). The medium was changed every other day until day 17. After day 17, the cells were cultured with RPMI/B27 and fed every 2 to 3 days. For long-term culture, the cells were dissociated with TrypLETM Select Enzyme (10×) (Thermo Fisher Scientific) at 37° C. for 15-20 minutes and seeded on Matrigel- or iMatrix-511-coated plates. […] For FIG. 15A and FIG. 15B, dorsomorphin (DM) or 3 μg/L insulin were added on day 0 (for 24 hours), 1, 3, or 5 (for 48 hours). Cells were plated on iMatrix-511-coated plates and fixed in 4% paraformaldehyde (Nacalai, Kyoto, Japan) for 15 minutes. Cells were permeabilized with 0.1% Triton X-100 (Sigma-Aldrich, St. Louis, MO, United States)/PBS and blocked with 10% goat serum (Sigma-Aldrich). Primary and secondary antibodies were diluted in 0.1% Triton X-100/PBS with 5% goat serum and stained with Hoechst 33342 (Thermo Fisher Scientific) at 1 μg/mL, mouse anti-cardiac troponin T monoclonal IgG1 (GTX28295, GeneTex, Irvine, CA, United States) diluted at 1:16000, mouse anti-α-actinin monoclonal IgG1 (A7811, Sigma-Aldrich) diluted at 1:1000, rabbit anti-MLC2v monoclonal IgG (ab92721, Abcam, Cambridge, United Kingdom) diluted at 1:500, rabbit anti-CXCR4 monoclonal IgG (ab181020, Abcam) diluted at 1:2000, rabbit anti-NKX2-5 monoclonal IgG (Cat #. […], Cell Signaling Technology, Danvers, MA, United States) diluted at 1:2500, mouse anti-Nav1.5 (Car #. ASC-013, Alomone Labs) diluted at 1:1000, rabbit anti-connexin 43 (Cat #. 83649, Cell Signaling Technology) diluted at 1:1000, and mouse anti-TBX5 monoclonal IgG2a (Cat #. sc-515536, Santa Cruz Biotechnology, Dallas, TX, United States) diluted at 1:500. These cells were then incubated with a secondary antibody, goat anti-mouse or rabbit polyclonal IgG conjugated with iFluor 488 or 555 (AAT Bioquest, Sunnyvale, CA, United States) diluted at 1:1000, for 1 hour at room temperature. The cells were then observed with IX71 (Olympus, Tokyo, Japan) or EVOS FL Auto (Thermo Fisher Scientific) and images processed with ImageJ ([…] al., 2012, Nat Methods, 9:671-5).

[2] = test system: hPSC-CMs; test: Quantitative PCR of purified hiPSC-derived cardiomyocytes; conditions: DMH1-treated cell-derived cardiomyocytes at day 34
Experimental: For LV-cardiomyocyte differentiation, cardiac differentiation was performed according to the protocol published by (Lian et al., 2012, Proc Natl Acad Sci USA 109:[…]-57). Cells were dissociated with StemPro Accutase Cell Dissociation Reagent at 37° C. for 5 minutes. HESCs were seeded on Matrigel-coated 24-well plates (Corning) in StemFlex Medium supplemented with 10 μmol/[…] were seeded on iMatrix-511-coated 12-well plates (Corning) in StemFit A[…] supplemented with 10 μmol/[…] at seeding densities of 1×10^5 cells/cm^2 for hESCs and 1.25-2.5×10^4 cells/cm^2 for hiPSCs. Cells were cultured for 4 days until the start of differentiation (day 0). On day 0, the medium was changed to RPMI 1640 Medium (Thermo Fisher Scientific) supplemented with B-27 Supplement minus insulin (Thermo Fisher Scientific) (RPMI/B27-insulin) or B-27 Supplement with insulin (Thermo Fisher Scientific), and 12 μmol/L CHIR 99021 (SelleckChem, Houston, TX, United States), and the cells incubated in this medium for 24 h (day 1). On day 1, the medium was changed to RPMI/B27-insulin. […] PowerUpTM SYBR Green Master Mix (Thermo Fisher Scientific) and QuantStudio 1 (Thermo Fisher Scientific) were used for quantitative PCR (q-PCR), wherein q-PCR data were processed using the ΔΔCT method. […] Data were analyzed with the web-based tool of GeneGlobe Data Analysis Center (Qiagen).

[3] = test system: hiPSC-derived cells; test: Flow cytometry of cardiac troponin T (cTnT); conditions: 1 μmol/L on day 0; day 12; n=4; mean±SD; control 82.1±2.6%, p=0.04
Experimental: For LV-cardiomyocyte differentiation, cardiac differentiation was performed according to the protocol published by (Lian et al., 2012, Proc Natl Acad Sci USA 109:[…]-57). Cells were dissociated with StemPro Accutase Cell Dissociation Reagent at 37° C. for 5 minutes. HESCs were seeded on Matrigel-coated 24-well plates (Corning) in StemFlex Medium supplemented with 10 μmol/[…] were seeded on iMatrix-511-coated 12-well plates (Corning) in StemFit A[…] supplemented with 10 μmol/[…] at seeding densities of 1×10^5 cells/cm^2 for hESCs and 1.25-2.5×10^4 cells/cm^2 for hiPSCs. Cells were cultured for 4 days until the start of differentiation (day 0). On day 0, the medium was changed to RPMI 1640 Medium (Thermo Fisher Scientific) supplemented with B-27 Supplement minus insulin (Thermo Fisher Scientific) (RPMI/B27-insulin) or B-27 Supplement with insulin (Thermo Fisher Scientific), and 12 μmol/L CHIR 99021 (SelleckChem, Houston, TX, United States), and the cells incubated in this medium for 24 h (day 1). On day 1, the medium was changed to RPMI/B27-insulin. […] On day 3, the medium was changed to RPMI/B27-insulin supplemented with 5 μmol/L IWP2 (SelleckChem) and on day 5, the medium was changed to 1 ml RPMI/B27-insulin. […] The cells were resuspended in 0.5% bovine serum albumin (Merck)/PBS and analyzed with an Attune NxT Flow Cytometer (Thermo Fisher Scientific).

| Compound | CXCR4 expression (immunostaining) ([1]; 0.5 μmol/L on day 0, day 7) | MLC2v, ventricular marker protein (immunostaining) ([1]; 0.5 μmol/L on day 0, day 35) | NKX2-5-positive/cTnT-positive cardiomyocytes ([1]; DMH1 on differentiation day 0, day 10) | TBX5 expression (immunostaining) ([1]; DMH1 on differentiation day 0, day 10, dose-dependent) | immunostaining signal of Nav1.5 and Connexin 43 ([1]; cardiomyocytes day 34, vs control) | expression of TGFB1, COL1A1, COL1A2, COL3A1, and COL5A1 (qPCR) [2] | percentages of cTnT-positive cells [3] [%] |
| --- | --- | --- | --- | --- | --- | --- | --- |
| CC(C)Oc1ccc(-c2cnc3c(-c4ccnc5ccccc45)cnn3c2)cc1 [DMH1, dorsomorphin homologue 1, reference compound] | upregulated | expressed | induced | reduced | reduction | reduced |  |
| c1cc(-c2cnn3cc(-c4ccc(OCCN5CCCCC5)cc4)cnc23)ccn1 [dorsomorphin] |  |  |  |  |  |  | 70.4±7.3 |
